Here are results for 1 compound from US20120107903A1 (priority 2010, published 2012).

Usually Km stands for the substrate concentration at which the rate is half of its maximum.

The target of the test is Ralstonia pickettii 12D FAD dependent oxidoreductase (SEQ ID NO:9), variant QYY, S327Q/S366Y/A473Y (Ralstonia pickettii, UniProt A0ABM9ITV6, A473Y/S327Q/S366Y). In kind it is biochemical. Particulars: read-out: Km (Mal).

Take `OC[C@H]1O[C@H](O[C@H]2[C@H](O)[C@@H](O)C(O)O[C@@H]2CO)[C@H](O)[C@@H](O)[C@@H]1O` (stereo partly shown) [Mal, maltose]: the Km is over 100 mM.
